ChEMBL document CHEMBL3351973, “4(α-l-rhamnosyloxy)-benzyl isothiocyanate, a bioactive phytochemical that attenuates secondary damage in an experimental model of spinal cord injury” (Bioorg Med Chem, 2015)
Activity calls are given as the source filed them.

Key:
Format in all cases: functional, organism-based
Set-up in all cases: dose 10 mg/kg
[1] = system: Mus musculus; test: Protection against injury in CD-1 mouse spinal cord injury model assessed as edema at 10 mg/kg, ip measured on day 7 by hematoxylin/eosin staining-based assay relative to control
[2] = system: Mus musculus; test: Neuroprotective activity in CD-1 mouse spinal cord injury model assessed as alteration of white matter at 10 mg/kg, ip measured on day 7 by hematoxylin/eosin staining-based assay relative to control
[3] = system: Mus musculus; test: Protection against injury in CD-1 mouse spinal cord injury model assessed as infiltration of leukocyte at 10 mg/kg, ip measured on day 7 by hematoxylin/eosin staining-based assay relative to control
[4] = system: Mus musculus; test: Protection against injury in CD-1 mouse spinal cord injury model assessed as distribution of reticular fibre at 10 mg/kg, ip measured on day 7 by hematoxylin/eosin staining-based assay relative to control
[5] = system: Mus musculus; test: Antiinflammatory activity in CD-1 mouse spinal cord injury model assessed as IkappaB-alpha expression at 10 mg/kg, ip measured on day 7 by Western blotting analysis relative to control
[6] = system: Mus musculus; test: Antiinflammatory activity in CD-1 mouse spinal cord injury model assessed as reduction of NF-kappaB-p65 level at 10 mg/kg, ip measured on day 7 by immunohistological analysis relative to control
[7] = system: Mus musculus; test: Antiinflammatory activity in CD-1 mouse spinal cord injury model assessed as reduction in iNOS expression at 10 mg/kg, ip measured on day 7 by immunohistological analysis relative to control
[8] = system: Mus musculus; test: Antiapoptotic activity in CD-1 mouse spinal cord injury model assessed as reduction in Bax level at 10 mg/kg, ip measured on day 7 by immunohistological analysis relative to control
[9] = system: Mus musculus; test: Antiapoptotic activity in CD-1 mouse spinal cord injury model assessed as increase in Bcl-2 level at 10 mg/kg, ip measured on day 7 by immunohistological analysis relative to control
[10] = system: Mus musculus; test: Antiapoptotic activity in CD-1 mouse spinal cord injury model assessed as reduction in caspase expression at 10 mg/kg, ip measured on day 7 by Western blotting analysis relative to control

Measured: Activity

C[C@@H]1O[C@@H](Oc2ccc(CN=C=S)cc2)[C@H](O)[C@H](O)[C@H]1O
active: all assays above
